System: hemoglobin-haptoglobin complex
Test: Stability of hemoglobin (as hemoglobin-haptoglobin complex) in samples preserved at 37° C. in preservation solution containing 1 unit/L haptoglobin, Hb measured by latex agglutination method (Examples 1 to 7)
Parameters: species or system human
Details: arylboronic acid 15 mmol/L
Description: Preservation solutions were prepared with the addition of 40 mmol/L HEPES (pH 6.8), 0.1% BSA, 0.1% NaN3, 1 unit/L haptoglobin, and 0 to 100 mmol/L phenylboronic acid. Samples obtained by adding hemoglobin-added fecal specimens to the preservation solutions so that the fecal concentration would be 0.5% were preserved at 37° C. for 0, 7, 14, and 21 days. The fecal specimens were added with hemoglobin having an amount such that the hemoglobin concentration in the samples would be about 300 μg/L. Instead of the fecal specimens to which hemoglobin was added, samples containing no fecal specimens, in which hemoglobin was added to the preservation solutions so that the hemoglobin concentration in the samples would be 300 μg/L, were similarly preserved. The hemoglobin (Hb) concentrations (μg/L) in the preserved samples were measured by the latex agglutination method.
The concentrations of hemoglobin were measured using “OC-Hemodia (registered trademark) Auto III ‘EIKEN’” (available from EIKEN CHEMICAL CO., LTD.) as a measurement reagent and “OC-sensor DIANA” (available from EIKEN CHEMICAL CO., LTD.) as a measurement device. The above measurement reagent contains latex particles immobilizing an anti-human hemoglobin rabbit polyclonal antibody.
From the measured concentrations of hemoglobin, the recovery ratios (%) were calculated with respect to the hemoglobin concentrations immediately after the fecal specimens were added to the preservation solutions (i.e., concentrations 0 days after the fecal specimens were added).
(§1) For comparative examples, preservation solutions to which no arylboronic acid was added were prepared, and testing was conducted in the same manner.
The concentration of phenylboronic acid in the preservation solutions of Example 1 was fixed to 15 mmol/L, preservation solutions to which a sugar (sorbitol, sucrose, trehalose, glucose, fructose, or mannitol) was further added at 50 mmol/L or 100 mmol/L or preservation solutions to which no sugar was added were prepared, and testing was conducted in the same manner as in Example 1. For comparative examples, preservation solutions to which the phenylboronic acid and sugar were not added were prepared, and testing was conducted in the same manner.
Preservation solutions in which sorbitol, sucrose, trehalose, glucose, fructose, or mannitol was added at 100 mmol/L to the preservation solutions of Example 1 containing no phenylboronic acid were prepared, and testing was conducted in the same manner as in Example 1. For comparison, the same testing was conducted without adding these sugars.
The concentration of phenylboronic acid in the preservation solutions of Example 1 was fixed to 15 mmol/L, preservation solutions to which sorbitol was added at 10 to 500 mmol/L or sucrose was added at 10 to 250 mmol/L or preservation solutions to which no sugar was added were prepared, and testing was conducted in the same manner as in Example 1. For comparative examples, preservation solutions to which the phenylboronic acid and sugar were not added were prepared, and testing was conducted in the same manner.
as §1

[1] = Feces 1, sugar (if added) 100 mmol/L, 0 days at 37° C.
[2] = Feces 1, sugar (if added) 100 mmol/L, 7 days at 37° C.
[3] = Feces 1, sugar (if added) 100 mmol/L, 14 days at 37° C.
[4] = Feces 2, sugar (if added) 100 mmol/L, 0 days at 37° C.
[5] = Feces 2, sugar (if added) 100 mmol/L, 7 days at 37° C.
[6] = Feces 2, sugar (if added) 100 mmol/L, 14 days at 37° C.
[7] = Feces 3, sugar (if added) 100 mmol/L, 0 days at 37° C.
[8] = Feces 3, sugar (if added) 100 mmol/L, 7 days at 37° C.
[9] = Feces 3, sugar (if added) 100 mmol/L, 14 days at 37° C.
[10] = No feces, sugar (if added) 100 mmol/L, 0 days at 37° C.
[11] = No feces, sugar (if added) 100 mmol/L, 7 days at 37° C.
[12] = No feces, sugar (if added) 100 mmol/L, 14 days at 37° C.

## O=C(O)c1cccc(B(O)O)c1 [3C-PBA, 3-carboxyphenylboronic acid]
[1]
  Hb concentration: 309 µg/L
  Recovery ratio with respect to Hb after 0 days: 100%
[2]
  Hb concentration: 249 µg/L
  Recovery ratio with respect to Hb after 0 days: 81%
[3]
  Hb concentration: 239 µg/L
  Recovery ratio with respect to Hb after 0 days: 77%
Feces 1, 37° C., 0 days
  Hb concentration: 309 µg/L
  Recovery ratio with respect to Hb after 0 days: 100%
Feces 1, 37° C., 7 days
  Hb concentration: 249 µg/L
  Recovery ratio with respect to Hb after 0 days: 81%
Feces 1, 37° C., 14 days
  Hb concentration: 239 µg/L
  Recovery ratio with respect to Hb after 0 days: 77%
[4]
  Hb concentration: 309 µg/L
  Recovery ratio with respect to Hb after 0 days: 100%
[5]
  Hb concentration: 264 µg/L
  Recovery ratio with respect to Hb after 0 days: 85%
[6]
  Hb concentration: 240 µg/L
  Recovery ratio with respect to Hb after 0 days: 78%
Feces 2, 37° C., 0 days
  Hb concentration: 309 µg/L
  Recovery ratio with respect to Hb after 0 days: 100%
Feces 2, 37° C., 7 days
  Hb concentration: 264 µg/L
  Recovery ratio with respect to Hb after 0 days: 85%
Feces 2, 37° C., 14 days
  Hb concentration: 240 µg/L
  Recovery ratio with respect to Hb after 0 days: 78%
[7]
  Hb concentration: 300 µg/L
  Recovery ratio with respect to Hb after 0 days: 100%
[8]
  Hb concentration: 213 µg/L
  Recovery ratio with respect to Hb after 0 days: 71%
[9]
  Hb concentration: 200 µg/L
  Recovery ratio with respect to Hb after 0 days: 67%
Feces 3, 37° C., 0 days
  Hb concentration: 300 µg/L
  Recovery ratio with respect to Hb after 0 days: 100%
Feces 3, 37° C., 7 days
  Hb concentration: 213 µg/L
  Recovery ratio with respect to Hb after 0 days: 71%
Feces 3, 37° C., 14 days
  Hb concentration: 200 µg/L
  Recovery ratio with respect to Hb after 0 days: 67%
[10]
  Hb concentration: 293 µg/L
  Recovery ratio with respect to Hb after 0 days: 100%
[11]
  Hb concentration: 281 µg/L
  Recovery ratio with respect to Hb after 0 days: 96%
[12]
  Hb concentration: 276 µg/L
  Recovery ratio with respect to Hb after 0 days: 94%
No feces, 37° C., 0 days
  Hb concentration: 293 µg/L
  Recovery ratio with respect to Hb after 0 days: 100%
No feces, 37° C., 7 days
  Hb concentration: 281 µg/L
  Recovery ratio with respect to Hb after 0 days: 96%
No feces, 37° C., 14 days
  Hb concentration: 276 µg/L
  Recovery ratio with respect to Hb after 0 days: 94%

## OB(O)c1cccc(O)c1 [3H-PBA, 3-hydroxyphenylboronic acid]
[1]
  Hb concentration: 327 µg/L
  Recovery ratio with respect to Hb after 0 days: 100%
[2]
  Hb concentration: 269 µg/L
  Recovery ratio with respect to Hb after 0 days: 82%
[3]
  Hb concentration: 268 µg/L
  Recovery ratio with respect to Hb after 0 days: 82%
Feces 1, 37° C., 0 days
  Hb concentration: 327 µg/L
  Recovery ratio with respect to Hb after 0 days: 100%
Feces 1, 37° C., 7 days
  Hb concentration: 269 µg/L
  Recovery ratio with respect to Hb after 0 days: 82%
Feces 1, 37° C., 14 days
  Hb concentration: 268 µg/L
  Recovery ratio with respect to Hb after 0 days: 82%
[4]
  Hb concentration: 326 µg/L
  Recovery ratio with respect to Hb after 0 days: 100%
[5]
  Hb concentration: 277 µg/L
  Recovery ratio with respect to Hb after 0 days: 85%
[6]
  Hb concentration: 264 µg/L
  Recovery ratio with respect to Hb after 0 days: 81%
Feces 2, 37° C., 0 days
  Hb concentration: 326 µg/L
  Recovery ratio with respect to Hb after 0 days: 100%
Feces 2, 37° C., 7 days
  Hb concentration: 227 µg/L
  Recovery ratio with respect to Hb after 0 days: 85%
Feces 2, 37° C., 14 days
  Hb concentration: 264 µg/L
  Recovery ratio with respect to Hb after 0 days: 81%
[7]
  Hb concentration: 313 µg/L
  Recovery ratio with respect to Hb after 0 days: 100%
[8]
  Hb concentration: 213 µg/L
  Recovery ratio with respect to Hb after 0 days: 68%
[9]
  Hb concentration: 206 µg/L
  Recovery ratio with respect to Hb after 0 days: 66%
Feces 3, 37° C., 0 days
  Hb concentration: 313 µg/L
  Recovery ratio with respect to Hb after 0 days: 100%
Feces 3, 37° C., 7 days
  Hb concentration: 213 µg/L
  Recovery ratio with respect to Hb after 0 days: 68%
Feces 3, 37° C., 14 days
  Hb concentration: 206 µg/L
  Recovery ratio with respect to Hb after 0 days: 66%
[10]
  Hb concentration: 303 µg/L
  Recovery ratio with respect to Hb after 0 days: 100%
[11]
  Hb concentration: 294 µg/L
  Recovery ratio with respect to Hb after 0 days: 97%
[12]
  Hb concentration: 296 µg/L
  Recovery ratio with respect to Hb after 0 days: 98%
No feces, 37° C., 0 days
  Hb concentration: 303 µg/L
  Recovery ratio with respect to Hb after 0 days: 100%
No feces, 37° C., 7 days
  Hb concentration: 294 µg/L
  Recovery ratio with respect to Hb after 0 days: 97%
No feces, 37° C., 14 days
  Hb concentration: 296 µg/L
  Recovery ratio with respect to Hb after 0 days: 98%
